Experimental data reported in patent US20090012163A1, “Compositions containing Mg/Zn/F-CaP plus inhibitors of pro-inflammatory cytokines (alpha ketoalkanoic acid compound) for osteoporosis prevention, therapy and treatment of bone diseases” (priority 2007, published 2009).

Tested on: TNFa release from stimulated peripheral blood monocytes (PBMCs)
Test: Inhibition by ethyl pyruvate of TNFa release from LPS-stimulated PBMCs (ELISA)
Type: cell-based
Conditions: for TNFa release, LPS (5 ug/ml) / TNFa release, LPS (10 ug/ml): ELISA; for inhibition at 5000 µM / inhibition at 10000 µM / inhibition at 25000 µM / inhibition at 50000 µM: PBMC
Protocol: The Effect of Alpha-Ketoalkanoic Acid on TNFa Release from Stimulated Peripheral Blood Monocytes (PBMCS)
The cells were cultured in RPMI 1640 supplemented with 1% serum albumin for approximately 12 hours before treating with LPS (Lipopolysaccharide from E. Coli) at increasing concentrations to induce TNFa release. […] The effects of ethyl pyruvate (EP) on PBMC=s macrophages cultures with 5-10 micrograms of LPS was used to stimulate relase of TNFa.
Inhibition by Ethyl Pyruvate of TNFa Release (Measured via ELISA Assay)

SMILES: CCOC(=O)C(C)=O [EP, ethyl pyruvate]
- TNFa release, LPS (5 ug/ml) (EP 5 mM, LPS 5 ug/ml): 450 arbitrary fluorescence units
- TNFa release, LPS (10 ug/ml) (EP 5 mM, LPS 10 ug/ml): 480 arbitrary fluorescence units
- TNFa release, LPS (5 ug/ml) (EP 10 mM, LPS 5 ug/ml): 275 arbitrary fluorescence units
- TNFa release, LPS (10 ug/ml) (EP 10 mM, LPS 10 ug/ml): 310 arbitrary fluorescence units
- TNFa release, LPS (5 ug/ml) (EP 25 mM, LPS 5 ug/ml): 201 arbitrary fluorescence units
- TNFa release, LPS (10 ug/ml) (EP 25 mM, LPS 10 ug/ml): 190 arbitrary fluorescence units
- TNFa release, LPS (5 ug/ml) (EP 50 mM, LPS 5 ug/ml): 200 arbitrary fluorescence units
- TNFa release, LPS (10 ug/ml) (EP 50 mM, LPS 10 ug/ml): 180 arbitrary fluorescence units
- Inhibition of TNFa release (in words) (LPS & EP incubated in the cultures, different concentrations): effective inhibitor of TNFa release
- inhibition at 5000 µM (EP 5 mM, LPS 5 ug/ml): 12%
- inhibition at 5000 µM (EP 5 mM, LPS 10 ug/ml): 6%
- inhibition at 10000 µM (EP 10 mM, LPS 5 ug/ml): 47%
- inhibition at 10000 µM (EP 10 mM, LPS 10 ug/ml): 59%
- inhibition at 25000 µM (EP 25 mM, LPS 5 ug/ml): 51%
- inhibition at 25000 µM (EP 25 mM, LPS 10 ug/ml): 75%
- inhibition at 50000 µM (EP 50 mM, LPS 5 ug/ml): 51%
- inhibition at 50000 µM (EP 50 mM, LPS 10 ug/ml): 76%
